Entries after “also recorded” stand apart in the source; their conditions may differ.
What was measured:
BCL2 = experiment: Western immunoblotting of BCL2 protein levels; type: cell-based, human
Description: (§1) As control a scrambled miRNA and a non-targeting siRNA pool were included. Proteins were harvested 72 hrs post transfection using RIPA buffer supplemented with HALT™ Phosphatase Inhibitor (Thermo Scientific) and Protease Inhibitor Cocktail (Sigma). […] The membranes were blocked in 5% milk in TBS-T and incubated O/N at 4° C. with primary antibodies to bRAF, total ERK1/2, phosphoERK1/2, CDK4, BCL2 and tubulin (Santa Cruz). After incubation with secondary goat-anti-mouse antibodies (Santa Cruz), membranes were developed using ECL (Pierce).
as §1, with “Proteins” for “As control a scrambled miRNA and a non-targeting siRNA pool were included. Proteins”
As control a scrambled miRNA was included. Proteins were harvested 72 hrs post transfection using RIPA buffer supplemented with HALT™ Phosphatase Inhibitor (Thermo Scientific) and Protease Inhibitor Cocktail (Sigma). Fifteen μg protein was loaded on 10% TGX acrylamide gels (Bio-Rad) and subsequently transferred to PVDF membranes. The membranes were blocked in 5% milk in TBS-T and incubated O/N at 4° C. with primary antibodies to bRAF, total ERK1/2, phosphoERK1/2, BCL2, CDK4 and tubulin (Santa Cruz). After incubation with secondary goat-anti-mouse antibodies (Santa Cruz), membranes were developed using ECL (Pierce).
Proteins were isolated using RIPA buffer (50 mM Tris pH 8.0, 150 mM NaCL, 1% NP-40, 0.5% Sodium deoxycholate, 0.1% SDS), supplemented with Protease Inhibitor Cocktail (Sigma) and Halt™ Phosphatase Inhibitor Cocktail (Pierce/Thermo Scientific). […] Membranes were blocked in 5% milk or 5% BSA in TBS-T, and incubated O/N at 4° C. with primary antibodies against α-tubulin (1:5000), BRAF, pERK1/2, CDK4, RRM2 (all 1:1000), BCL-2 (1:500) (Santa Cruz), total-ERK1/2 (1:2000), BIRC5, AURKB (1:1000) (Cell Signaling), ERK1 (1:2000) (GeneTex). After incubation with appropriate secondary antibodies and western blot chemiluminescence substrate ECL (Pierce/Thermo Scientific), membranes were exposed to CL-XPosure Film (Pierce/Thermo Scientific).

[1] = tested on: A375Hu-R1 (vemurafenib resistant clone of A375Hu); experiment: Anti-proliferative effect of small molecules, MTS assay; type: cell-based; settings: Homo sapiens, A375Hu-R1 (A375-R), in vitro acquired resistance, 72 hours
Description: (§2) The anti-proliferative effect of small molecules in melanoma cell lines was determined with V600E BRAF inhibitor, vemurafenib (PLX-4032, 51267, Selleck) and MEK inhibitor, selumetinib (AZD-6244, S1008, Selleck). For each cell line optimal growth conditions were determined prior to the experiment. Cells were plated in a 96-well plate at 3000 cells per well (100 uL) and were grown at 37 C, 5% CO2. Small molecule mix (50 uL per well) was made for each concentration in medium. Cells were treated in triplicate 24 hours after plating. After 72 hours medium was replaced and viability was measured with the MTS assay (Promega) according to manufacturer's instructions. Cell viability inhibition is normalized against loading control (0.1% DMSO) and GraphPad Prism was used to fit the curve and calculate GI50 values.
The A375Hu melanoma cell line was used to make a vemurafenib (PLX-4032) resistant sub line. A375Hu cells were plated at low density in 96-well plates and exposed to 1 uM PLX-4032. Cell growth was monitored until clonal growth was observed. Wells with clonal growth (approximately 5%) were replated in a 96-well plate and exposed to 1 uM PLX-4032. The 10 best growing clones were replated in 6-well plates in 1 uM PLX-4032 and the three best growing clones were used for further culturing. Clone number 1 (A375Hu-R1) grew best with 1 uM PLX-4032 and was chosen for additional experiments.

M376 melanoma cell line = experiment: as above; type: cell-based; settings: M376, in vivo acquired resistance
Description: as §2
(§3) A375 cells were obtained from the Hubrecht Institute (Utrecht, The Netherlands); SKMEL-28, A2058 and RPMI-7951 were from the ATCC; SKMEL-57 was a gift from Dr. Patricia Groenen (Radboud University Nijmegen Medical Centre, The Netherlands); for cell line characteristics of M249, M249-AR4, M233 and M376 see (Atefi et al. 2011). A375-R, with in vitro acquired resistance to vemurafenib, was established in our lab by clonal selection of cells continually exposed to 1 μM vemurafenib. A375, A375-R, SKMEL-28, A2058 and SKMEL-57 were grown in DMEM GlutaMAX™-I (Gibco®), all other cell lines in RPMI-1640 (Gibco®). Media was supplemented with 10% FBS (Sigma), and cells were maintained in a humidified 37° C. incubator (Thermo Scientific) with 5% CO2. Vemurafenib (PLX4032; Selleck Chemicals) was diluted in DMSO to a stock concentration of 10 mM.

M233 melanoma cell line = experiment: as above; type: cell-based; settings: M233, vemurafenib resistant
Description: as §2, §3

[2] = tested on: SKMEL-57 melanoma cell line; experiment: as above; type: cell-based; settings: SKMEL-57, vemurafenib sensitive
Description: as §2, §3

[3] = tested on: SKMEL-28 melanoma cell line; experiment: as above; type: cell-based; settings: Homo sapiens, SK-MEL-28, SKMEL-28, vemurafenib sensitive
Description: as §2, §3

M249 melanoma cell line = experiment: as above; type: cell-based; settings: M249, 72 h, M249, vemurafenib sensitive
Description: as §2

[4] = tested on: M249-R4 melanoma cell line; experiment: as above; type: cell-based; settings: M249-R4 (M249-AR4), in vitro acquired resistance, 72 hours
Description: as §2

[5] = tested on: RPMI-7951 melanoma cell line; experiment: as above; type: cell-based; settings: Homo sapiens
Description: as §2

A2058 melanoma cell line = experiment: as above; type: cell-based; settings: Homo sapiens, A2058, intrinsic resistance, 72 hours
Description: as §2

[6] = tested on: A375Hu melanoma cell line; experiment: as above; type: cell-based; settings: Homo sapiens, A-375, 72 h, A375Hu (A375), vemurafenib sensitive
Description: as §2

[7] = A375Hu cells, 72 hrs, Western blot

Compound	BCL2 protein levels (BCL2; [7])	BCL2 protein levels (BCL2; A375 cells, increasing concentrations of mimic (FIG. 12c))	BCL2 protein levels (BCL2; A2058, M249, M249-AR4 and M376, increasing concentrations of mimic (FIG. 14a))	BCL2 protein levels (BCL2; A2058 cells (vemurafenib resistant), 72 hrs post transfection, Western blot)	BCL2 protein levels (BCL2; A375Hu cells, 72 hrs, Western blot, listed as PLX-4032)	GI50 [1] [µM]	GI50 (M376 melanoma cell line) [µM]	GI50 (M233 melanoma cell line) [µM]	GI50 [2] [µM]	GI50 [3] [µM]	GI50 (M249 melanoma cell line) [µM]	GI50 [4] [µM]	cytotoxicity at 3 µM ([5]; RPMI-7951, 3 μM vemurafenib (FIG. 15a), read-out: reduction of cell viability) [%]	GI50 ([5]; RPMI-7951, intrinsic resistance, 72 hours, MTS) [µM]	GI50 (A2058 melanoma cell line) [µM]	GI50 [6] [µM]
hsa-miR-3157-5p: mature miRNA mimic, SEQ ID NO 6 UUCAGCCAGGCUAGUGCAGUCU (listed as RNA, chemistry not given here)	significant reduction in BCL2 protein levels; also recorded: down-regulated	strong reduction	no effect	reduction; also recorded: down-regulated	–	–	–	–	–	–	–	–	–	–	–	–
CCCS(=O)(=O)Nc1ccc(F)c(C(=O)c2c[nH]c3ncc(-c4ccc(Cl)cc4)cc23)c1F [Vemurafenib, N-(3-{[5-(4-chlorophenyl)-1H-pyrrolo[2,3-b]pyridin-3-yl]carbonyl}-2,4-difluorophenyl)propane-1-sulfonamide]	but not CDK4 or BCL2	–	–	–	not in reduction of CDK4 and BCL2 protein levels	> 10	> 10	> 10	~0.8	~0.6	~0.3	> 10	~20	> 10	> 10	~0.1
